Results from article PMC7708434 (Biochimica et biophysica acta. General subjects, 2020).

Tests used:
Format in all cases: binding
[1] = biological target: T1, 4-hydroxy-tetrahydrodipicolinate reductase (MtDapB) (Mycobacterium tuberculosis, UniProt P9WP23); assay: X-ray crystal structure
[2] = biological target: T2, 4-hydroxy-tetrahydrodipicolinate reductase (VvDapB) (Vibrio vulnificus, UniProt Q8DEM0); assay: X-ray crystal structure
[3] = biological target: T2, 4-hydroxy-tetrahydrodipicolinate reductase (VvDapB); assay: ITC
[4] = biological target: T1, 4-hydroxy-tetrahydrodipicolinate reductase (MtDapB); assay: ITC

T1 sequence (P9WP23 whole entry): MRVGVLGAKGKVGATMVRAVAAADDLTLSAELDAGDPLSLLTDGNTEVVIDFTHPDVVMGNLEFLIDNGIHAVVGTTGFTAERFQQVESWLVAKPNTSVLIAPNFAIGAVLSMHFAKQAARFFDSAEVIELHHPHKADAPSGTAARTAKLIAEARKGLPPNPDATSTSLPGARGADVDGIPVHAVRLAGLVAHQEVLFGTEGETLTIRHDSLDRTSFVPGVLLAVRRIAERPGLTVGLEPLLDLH
T2 sequence (Q8DEM0 whole entry): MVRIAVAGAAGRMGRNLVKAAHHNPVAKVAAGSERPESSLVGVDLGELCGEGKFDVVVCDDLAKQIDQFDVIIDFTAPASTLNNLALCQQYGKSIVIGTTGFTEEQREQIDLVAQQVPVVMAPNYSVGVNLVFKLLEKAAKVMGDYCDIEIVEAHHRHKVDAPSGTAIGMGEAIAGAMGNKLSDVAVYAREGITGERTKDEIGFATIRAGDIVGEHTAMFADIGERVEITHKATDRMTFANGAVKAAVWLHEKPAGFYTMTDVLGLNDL

Row | SMILES | X-ray crystal structure [1] | X-ray crystal structure [2] | Kd [3] [µM] | Kd [4] [µM]
1 | NC(=O)c1ccc[n+]([C@@H]2O[C@H](COP(=O)([O-])OP(=O)(O)OC[C@H]3O[C@@H](n4cnc5c(N)ncnc54)[C@H](O)[C@@H]3O)[C@@H](O)[C@H]2O)c1 [NAD+] | apo MtDapB (PDB ID: 5TEK chain A) and NAD^+ bound MtDapB (PDB ID: 5UGV chain A) structures | NADH was used for crystallization, in all cases we observed NAD^+ in the crystal structures |  | 
2 | NC(=O)C1=CN([C@@H]2O[C@H](COP(=O)(O)OP(=O)(O)OC[C@H]3O[C@@H](n4cnc5c(N)ncnc54)[C@H](O)[C@@H]3O)[C@@H](O)[C@H]2O)C=CC1 [NADH] |  |  | 3.9 ± 1.2 | 3.6 ± 0.4
